Drawing on US8618153B2, “Hepatitis C virus inhibitors” (Bristol-Myers Squibb Company, priority 2009, dated 2013), this text covers EC50 for 17 compounds.

Usually EC50 stands for the midpoint of the concentration-response curve.

The subject of the first test is HCV 1b genotype. Nature of the test: HCV Replicon assay (HCV-neo replicon cells), 1b genotype. Format: cell-based. To be noted: Hepatitis C virus; HCV 1b genotype replicon; numeric value; read-out: 1b EC50 (in μM or range). As for the experimental part: An HCV Replicon assay was utilized in the present disclosure, and was prepared, conducted and validated as described in commonly owned PCT/US2006/022197 and in O'Boyle et al., Antimicrob. Agents Chemother., 49(4):1346-1353 (April 2005). Assay methods incorporating luciferase reporters have also been used as described (Apath.com).
HCV-neo replicon cells and replicon cells containing mutations in the NS5A region were used to test the currently described family of compounds. The compounds were determined to have more than 10-fold less inhibitory activity on cells containing mutations than wild-type cells. Thus, the compounds of the present disclosure can be effective in inhibiting the function of the HCV NS5A protein and are understood to be as effective in combinations as previously described in application PCT/US2006/022197 and commonly owned WO 04/014852. Further, the compounds of the present disclosure can be effective against the HCV 1b genotype. It should also be understood that the compounds of the present disclosure can inhibit multiple genotypes of HCV. […] In one embodiment compounds of the present disclosure are inhibitory versus 1a, 1b, 2a, 2b, 3a, 4a, and 5a genotypes. […] The compounds of the present disclosure may inhibit HCV by mechanisms in addition to or other than NS5A inhibition. In one embodiment the compounds of the present disclosure inhibit HCV replicon and in another embodiment the compounds of the present disclosure inhibit NS5A.
(Replicon systems follow genome replication, usually without infectious particles.)
Regarding `COC(=O)N[C@@H](C(=O)N1CCC[C@H]1c1ncc(-c2ncc(-c3cnc(-c4cnc([C@@H]5CCCN5C(=O)[C@H](NC(=O)OC)C(C)C)[nH]4)s3)s2)[nH]1)C(C)C` [Example 11, Methyl ((1R)-1-(((2S)-2-(4-(2′-(2-((2S)-1-((2R)-2-((methoxycarbonyl)amino)-3-methylbutanoyl)-2-pyrrolidinyl)-1H-imidazol-4-yl)-5,5′-bi-1,3-thiazol-2-yl)-1H-imidazol-2-yl)-1-pyrrolidinyl)carbonyl)-2-methylpropyl)carbamate], the EC50 is 5860 nM. As to `CCN(CC)[C@@H](C(=O)N1CCC[C@H]1c1nc(/C=C/c2ccc(/C=C/c3cnc([C@@H]4CCCN4C(=O)[C@@H](c4ccccc4)N(CC)CC)[nH]3)cc2)c[nH]1)c1ccccc1` [Example 35, (1R)-2-((2S)-2-(4-((E)-2-(4-((E)-2-(2-((2S)-1-((2R)-2-(diethylamino)-2-phenylacetyl)-2-pyrrolidinyl)-1H-imidazol-5-yl)vinyl)phenyl)vinyl)-1H-imidazol-2-yl)-1-pyrrolidinyl)-N,N-diethyl-2-oxo-1-phenylethanamine], the EC50 was determined as 0.14 nM.

As to `C[C@H](NC(=O)[C@@H](c1ccccc1)N(C)C)c1ncc(-c2cccc(-c3cnc(-c4c[nH]c([C@@H]5CCCN5C(=O)[C@@H](c5ccccc5)N(C)C)n4)o3)c2)[nH]1` [Example 24, (2R)-2-(Dimethylamino)-N-((1S)-1-(4-(3-(2-(2-((2S)-1-((2R)-2-(dimethylamino)-2-phenylacetyl)-2-pyrrolidinyl)-1H-imidazol-4-yl)-1,3-oxazol-5-yl)phenyl)-1H-imidazol-2-yl)ethyl)-2-phenylacetamide], the EC50 worked out at 1.81 nM.

In the case of `COC(=O)N[C@H](C(=O)N1CCC[C@H]1c1ncc(-c2ccc(-c3ccc(-c4cnc([C@@H]5CCCN5C(=O)[C@@H](NC(=O)OC)C(C)C)[nH]4)s3)s2)[nH]1)C(C)C` [Example 6, Methyl ((1S)-1-(((2S)-2-(4-(5′-(2-((2S)-1-((2S)-2-((methoxycarbonyl)amino)-3-methylbutanoyl)-2-pyrrolidinyl)-1H-imidazol-4-yl)-2,2′-bithiophen-5-yl)-1H-imidazol-2-yl)-1-pyrrolidinyl)carbonyl)-2-methylpropyl)carbamate], the EC50 turned out to be 0.003 nM. As for `COC(=O)N[C@@H](C)C(=O)N1CCC[C@H]1c1nc(CCc2ccc(CCc3cnc([C@@H]4CCCN4C(=O)[C@H](C)NC(=O)OC)[nH]3)cc2)c[nH]1` [Example 42, methyl ((1S)-2-((2S)-2-(4-(2-(4-(2-(2-((2S)-1-(N-(methoxycarbonyl)-L-alanyl)-2-pyrrolidinyl)-1H-imidazol-4-yl)ethyl)phenyl)ethyl)-1H-imidazol-2-yl)-1-pyrrolidinyl)-1-methyl-2-oxoethyl)carbamate], the EC50 was determined as 274 nM.

Staying with this test, now noted: Hepatitis C virus; HCV 1b genotype replicon; value given as range class; read-out: 1b EC50 (in μM or range).
On to `CN(C)[C@@H](C(=O)N1CCC[C@H]1c1nc(-c2ncc(-c3ccc(-c4cnc([C@@H]5CCCN5C(=O)[C@@H](c5ccccc5)N(C)C)[nH]4)cc3)o2)c[nH]1)c1ccccc1` [Example 26, (1R)-2-((2S)-2-(4-(4-(2-(2-((2S)-1-((2R)-2-(Dimethylamino)-2-phenylacetyl)-2-pyrrolidinyl)-1H-imidazol-4-yl)-1,3-oxazol-5-yl)phenyl)-1H-imidazol-2-yl)-1-pyrrolidinyl)-N,N-dimethyl-2-oxo-1-phenylethanamine], for which the EC50 lay within 1 to 10 nM.

With `COC(=O)N[C@@H](C)C(=O)N1CCC[C@H]1c1nc(C#Cc2ccc(C#Cc3c[nH]c([C@@H]4CCCN4C(=O)[C@H](C)NC(=O)OC)n3)cc2)c[nH]1` [Example M6, Methyl ((1S)-2-((2S)-2-(4-((4-((2-((2S)-1-(N-(methoxycarbonyl)-L-alanyl)-2-pyrrolidinyl)-1H-imidazol-4-yl)ethynyl)phenyl)ethynyl)-1H-imidazol-2-yl)-1-pyrrolidinyl)-1-methyl-2-oxoethyl)carbamate], the EC50 lay within 1 to 10 nM. Consider `COC(=O)N[C@H](C(=O)N1CCC[C@H]1c1ncc(-c2cnc(-c3ncc(-c4cnc([C@@H]5CCCN5C(=O)[C@@H](NC(=O)OC)C(C)C)[nH]4)s3)s2)[nH]1)C(C)C` [Example 14, Methyl ((1S)-1-(((2S)-2-(4-(5′-(2-((2S)-1-((2S)-2-((methoxycarbonyl)amino)-3-methylbutanoyl)-2-pyrrolidinyl)-1H-imidazol-4-yl)-2,2′-bi-1,3-thiazol-5-yl)-1H-imidazol-2-yl)-1-pyrrolidinyl)carbonyl)-2-methylpropyl)carbamate], for which the EC50 is less than 1 nM. Consider `COC(=O)N[C@@H](C)C(=O)N1CCC[C@H]1c1ncc(-c2cnc(-c3ncc(-c4cnc([C@@H]5CCCN5C(=O)[C@H](C)NC(=O)OC)[nH]4)s3)s2)[nH]1` [Example 20, Methyl ((1S)-2-((2S)-2-(4-(5′-(2-((2S)-1-(N-(methoxycarbonyl)-L-alanyl)-2-pyrrolidinyl)-1H-imidazol-4-yl)-2,2′-bi-1,3-thiazol-5-yl)-1H-imidazol-2-yl)-1-pyrrolidinyl)-1-methyl-2-oxoethyl)carbamate], for which the EC50 fell in the range of 1 to 10 nM. For `COC(=O)N[C@@H](C(=O)N1CCC[C@H]1c1ncc(CCc2ccc(-c3cnc([C@@H]4CCCN4C(=O)[C@H](NC(=O)OC)c4ccccc4)[nH]3)cc2)[nH]1)c1ccccc1` [Example M2, Methyl ((1R)-2-((2S)-2-(4-(4-(2-(2-((2S)-1-((2R)-2-((methoxycarbonyl)amino)-2-phenylacetyl)-2-pyrrolidinyl)-1H-imidazol-4-yl)ethyl)phenyl)-1H-imidazol-2-yl)-1-pyrrolidinyl)-2-oxo-1-phenylethyl)carbamate], the EC50 is less than 1 nM. For the compound `COC(=O)N[C@H](C(=O)N1CCC[C@H]1c1ncc(C#Cc2ccc(C#Cc3cnc([C@@H]4CCCN4C(=O)[C@@H](NC(=O)OC)C(C)C)[nH]3)cc2)[nH]1)C(C)C` [Example M4, Methyl((1S)-1-(((2S)-2-(4-((4-((2-((2S)-1-((2S)-2-((methoxycarbonyl)amino)-3-methylbutanoyl)-2-pyrrolidinyl)-1H-imidazol-4-yl)ethynyl)phenyl)ethynyl)-1H-imidazol-2-yl)-1-pyrrolidinyl)carbonyl)-2-methylpropyl)carbamate], the half-maximal effective concentration (EC50) is less than 1 nM. Same read-out and setting: the result for `COC(=O)N[C@@H](C)C(=O)N1CCC[C@H]1c1nc(/C=C/c2ccc(/C=C/c3cnc([C@@H]4CCCN4C(=O)[C@H](C)NC(=O)OC)[nH]3)cc2)c[nH]1` [Example 37, methyl ((1S)-2-((2S)-2-(4-((E)-2-(4-((E)-2-(2-((2S)-1-(N-(methoxycarbonyl)-L-alanyl)-2-pyrrolidinyl)-1H-imidazol-4-yl)vinyl)phenyl)vinyl)-1H-imidazol-2-yl)-1-pyrrolidinyl)-1-methyl-2-oxoethyl)carbamate] reads less than 1 nM. Regarding `CN(C)[C@@H](C(=O)N1CCC[C@H]1c1ncc(-c2cnc(-c3ncc(-c4cnc([C@@H]5CCCN5C(=O)[C@@H](c5ccccc5)N(C)C)[nH]4)s3)s2)[nH]1)c1ccccc1` [Example 17, (1R,1′R)-2,2′-(2,2′-Bi-1,3-thiazole-5,5′-diylbis(1H-imidazole-4,2-diyl(2S)-2,1-pyrrolidinediyl))bis(N,N-dimethyl-2-oxo-1-phenylethanamine)], the EC50 was less than 1 nM. In the case of `COCC[C@H](NC(=O)OC)C(=O)N1CCC[C@H]1c1ncc(-c2ncc(-c3cnc(-c4cnc([C@@H]5CCCN5C(=O)[C@H](CCOC)NC(=O)OC)[nH]4)s3)s2)[nH]1` [Example 13, Methyl ((1S)-3-methoxy-1-(((2S)-2-(4-(2′-(2-((2S)-1-(N-(methoxycarbonyl)-O-methyl-L-homoseryl)-2-pyrrolidinyl)-1H-imidazol-4-yl)-5,5′-bi-1,3-thiazol-2-yl)-1H-imidazol-2-yl)-1-pyrrolidinyl)carbonyl)propyl)carbamate], the EC50 is 10 to 10000 nM. For the compound `COC(=O)N[C@@H](C(=O)N1CCC[C@H]1c1ncc(-c2ncc(-c3cnc(-c4cnc([C@@H]5CCCN5C(=O)[C@H](NC(=O)OC)c5ccccc5)[nH]4)s3)s2)[nH]1)c1ccccc1` [Example 9, Dimethyl (5,5′-bi-1,3-thiazole-2,2′-diylbis(1H-imidazole-4,2-diyl(2S)-2,1-pyrrolidinediyl((1R)-2-oxo-1-phenyl-2,1-ethanediyl)))biscarbamate], the EC50 was less than 1 nM. Same read-out and setting: the result for `COCC[C@H](NC(=O)OC)C(=O)N1CCC[C@H]1c1nc(C#Cc2ccc(C#Cc3c[nH]c([C@@H]4CCCN4C(=O)[C@H](CCOC)NC(=O)OC)n3)cc2)c[nH]1` [Example M7, Methyl ((1S)-3-methoxy-1-(((2S)-2-(4-((4-((2-((2S)-1-(N-(methoxycarbonyl)-O-methyl-L-homoseryl)-2-pyrrolidinyl)-1H-imidazol-4-yl)ethynyl)phenyl)ethynyl)-1H-imidazol-2-yl)-1-pyrrolidinyl)carbonyl)propyl)carbamate] reads less than 1 nM; that for `COC(=O)N[C@@H](C(=O)N1CCC[C@H]1c1ncc(-c2ccc(-c3ccc(-c4cnc([C@@H]5CCCN5C(=O)[C@H](NC(=O)OC)c5ccccc5)[nH]4)s3)s2)[nH]1)c1ccccc1` [Example 4, Dimethyl (2,2′-bithiene-5,5′-diylbis(1H-imidazole-4,2-diyl(2S)-2,1-pyrrolidinediyl((1R)-2-oxo-1-phenyl-2,1-ethanediyl)))biscarbamate], less than 1 nM.
